Source: US11771678B2 (NATIONAL UNIVERSITY CORPORATION KUMAMOTO UNIVERSITY, priority 2016, dated 2023)

Legend:
[1] = tested on: Adenylate cyclase, CREB, phosphorylated CREB; experiment: Protein expression analysis by Western Blotting in B42NPCs; type: cell-based, human; details: presence or absence of methylmalonic acid
Protocol: 2. Meanwhile, the protein expression analysis shown in FIG. 6 was carried out based on the existing Western Blotting method.

Adenylate cyclase = Adenylate cyclase inhibition by methylmalonic acid: cAMP concentration in B42NPCs; type: cell-based, human; details: methylmalonic acid 50 μM or 100 μM in culture fluid, 24 hours
Protocol: cAMP is produced from ATP by Adenylate cyclase. From this point of view, an investigation was conducted on whether methylmalonic acid would inhibit Adenylate cyclase.

[2] = tested on: lethal methylmalonic acid seizure model; experiment: In vivo test using survival rate as index, lethal methylmalonic acid seizure model; set-up: species or system C57BL/6J mice; details: db-cAMP 10 μg/kg/dose subcutaneous
Protocol: An evaluation of administration of candidate drugs was carried out using the survival rate as an index, using a lethal methylmalonic acid seizure model.
1. A […] methylmalonic acid solution was intraperitoneally administered to eight-week old C57BL/6J mice at a dose of 20 ml/kg, and thus a lethal methylmalonic acid seizure model was produced.
2. After one day, after two days, and after three days from the administration of methylmalonic acid, subcutaneous administration of db-cAMP (10 μg/kg/dose) as a candidate drug was performed, and a comparison of the survival rates in an administered group and a non-administered group was carried out.

[3] = tested on: methylmalonic acidemia-derived NPCs; experiment: cAMP production ability test with Forskolin (intracellular cAMP ELISA); type: cell-based, human; details: Forskolin 10 μmol/l, after 24 hours; compared with NPCs from normal iPS cells
Protocol: (3) On the occasion of performing measurement, a pretreatment of cells was carried out. Cells were detached from the culture plate, the number of cells was counted, and centrifugation was performed. After the centrifugation, the supernatant was suctioned, and the residue was suspended in a 0.1 M HCl solution at a concentration of 1×10^6/cells/mL. In the case of cells with a known cell count, a series of these operations was omitted, and 0.1 M HCl was introduced directly onto the culture plate while the cells were adhered. After suspending, the suspension was incubated at room temperature for 10 minutes and then was centrifuged at 600 g/5 minutes. […] (4) For the measurement, measurement was carried out through a series of the following processes. • A neutralizing liquid (Neutralizing reagent) was introduced in an amount of 50 μL into wells other than total activity (TA) and blanks. • Subsequently, 100 μL of a standard diluent was added to non-specific binding (NBS) and BO (0 pmol/mL standard). Furthermore, 50 μL of a standard diluent was added to the wells of NBS. […] The light absorbance at 405 nm was measured. […]

CC(C(=O)O)C(=O)O [methylmalonic acid]
total amounts of protein expression of Adenylate cyclase and CREB [1]: constant
cAMP production power (Adenylate cyclase): as the methylmalonic acid concentration in the culture fluid is higher, the cAMP production power is decreased

CCCC(=O)Nc1ncnc2c1ncn2[C@@H]1O[C@@H]2COP(=O)(O)O[C@H]2[C@H]1OC(=O)CCC [db-cAMP, dibutyl-cAMP]
vital prognosis based on seizure originating from methylmalonic acidemia [2]: markedly ameliorated
survival rate after two days ([2]; non-administered group 14.7%, p<0.001): 75.0%
survival rate one day after the administration of methylmalonic acid ([2]; non-administered group 35.3%): 85.0%

C=C[C@@]1(C)CC(=O)[C@]2(O)[C@@]3(C)[C@@H](O)CCC(C)(C)[C@@H]3[C@H](O)[C@H](OC(C)=O)[C@@]2(C)O1 [Forskolin, (3R,4aR,5S,6S,6aS,10S,10aR,10bS)-6,10,10b-trihydroxy-3,4a,7,7,10a-pentamethyl-1-oxo-3-vinyldodecahydro-1H-benzo[f]chromen-5-yl acetate]
reactivity to Forskolin (intracellular cAMP concentration) [3]: decrease in reactivity to Forskolin was recognized
